In patent US6316594A, “Antimicrobial peptide isolated from parasilurus asotus and its uses” (priority 1998, dated 2001):
Peptide text beside a SMILES is read from it.

How the values were obtained:
[1] = tested on: Bacillus subtilis ATCC 62037; assay: MIC, microdilution in 96-well plate; format: cell-based; settings: overnight 37° C., 3% TSB
Description: (§1) All of the microorganisms used in the invention were obtained from the American Type Culture Collection (ATCC) Used were Bacillus subtilis ATCC 62037, Staphylococcus aureus ATCC 15752, Streptococcus mutans ATCC 25175, Pseudomonas putida ATCC 17426, Escherichia coli ATCC 27325, Salmonella typhimurium ATCC 15277, Seratia sp. ATCC 21074, Cryptococcus neoformans ATCC 34881, Saccharomyces cerevisiae ATCC 44774 and Candida albicans ATCC 10231.
(§2) The parasin I and its derivatives obtained in Example I were lyophilized, resuspended in water and assayed for antimicrobial activity against B. subtilis ATCC 62037. The purity of the isolated peptides was analyzed by reverse-phase HPLC and MALDI-MS (Kratos Kompact MALDI, England). The antimicrobial activity of the samples was determined during each purification step by the radial diffusion assay using B. subtilis ATCC 62037 according to the method of Lehrer et al. ((1991) J. Immunol. Methods, 137, 167-173). A 20 ml culture of B. subtilis ATCC 62037 cell in mid-logarithmic phase was washed with 10 mM sodium phosphate buffer (NAPB), pH 7.4, at […], and resuspended in 10 ml of the same buffer. A cell suspension containing 1×10^6 bacterial colony forming units (CFUs) was added to 6 ml of an underlayer agar (10 mM sodium phosphate, 1% (v/v) trypticase soy broth (TSB), 1% (w/v) agarose, pH 6.5) and this resulting mixture was poured into a Petri dish. Samples were added, at an amount of 5 μl, directly in 3-mm wells which were made on the solidified underlayer agar. After incubation for 3 hours at 37° C., the underlayer agar was covered with a nutrient-rich top agar overlay (6% (w/v) TSB, 1% (w/v) agarose) and incubated overnight at 37° C. Antimicrobial activity was determined by observing the zone of suppression of bacterial growth around the 3-mm wells. The minimal inhibitory concentrations (MICs) of the isolated peptide against the microorganisms were determined as described by Moore et al. ((1991) J. Biol. Chem., 266, 19851-19857). 100 μl microorganism suspensions (10^5 CFU/ml) in 3% (w/v) TSB were mixed with serial two-fold dilutions of the isolated peptide in a sterilized 96-well microtiter plate (Nunc, Denmark). The final concentration of the peptide ranged 0.5-200 μg/ml. The 96-well plate was incubated overnight at 37° C. and the inhibition of growth was determined by measuring the absorbance at 620 nm on a microplate reader, such as that sold by B10-Rad, U.S.A., under the brand name of Model 550. The MIC was defined as the lowest concentration of peptide that inhibited growth. In respect to the test for antimicrobial activity, 10 different microorganisms, including Gram-negative bacteria, Gram-positive bacteria and fungi were used.

[2] = tested on: Staphylococcus aureus ATCC 15752; assay: MIC, microdilution in 96-well plate; format: cell-based; settings: overnight 37° C., 3% TSB
Description: as §1, §2

[3] = tested on: Escherichia coli ATCC 27325; assay: MIC, microdilution in 96-well plate; format: cell-based; settings: overnight 37° C., 3% TSB
Description: as §1, §2

[4] = tested on: Saccharomyces cerevisiae ATCC 44774; assay: MIC, microdilution in 96-well plate; format: cell-based; settings: overnight 37° C., 3% TSB
Description: as §1, §2

[5] = tested on: Pseudomonas putida ATCC 17426; assay: MIC, microdilution in 96-well plate; format: cell-based; settings: overnight 37° C., 3% TSB
Description: as §1, §2

[6] = tested on: Streptococcus mutans ATCC 25175; assay: MIC, microdilution in 96-well plate; format: cell-based; settings: overnight 37° C., 3% TSB
Description: as §1, §2

[7] = tested on: Salmonella typhimurium ATCC 15277; assay: MIC, microdilution in 96-well plate; format: cell-based; settings: overnight 37° C., 3% TSB
Description: as §1, §2

[8] = tested on: Serratia sp.; assay: MIC, microdilution in 96-well plate; format: cell-based; settings: overnight 37° C., 3% TSB
Description: as §1, §2

[9] = tested on: Cryptococcus neoformans ATCC 34881; assay: MIC, microdilution in 96-well plate; format: cell-based; settings: overnight 37° C., 3% TSB
Description: as §1, §2

[10] = tested on: Candida albicans ATCC 10231; assay: MIC, microdilution in 96-well plate; format: cell-based; settings: overnight 37° C., 3% TSB
Description: as §1, §2

[11] = tested on: human erythrocytes; assay: Hemolytic activity assay; settings: peptide 200 μg/ml
Procedure: The hemolytic activity of the antimicrobial peptide was assayed as described by Park et al. (9).

Magainin 2 [reference compound]
100 µg/mL: MIC [3] | MIC [6]
12 µg/mL: MIC [9]
50 µg/mL: MIC [1] | MIC [2] | MIC [5] | MIC [8]
25 µg/mL: MIC [4] | MIC [7] | MIC [10]

K G R G K Q G G K V R A K A K T R (KGRGKQGGKVRAKAKTR) [Seq. No. 2, synthetic derivative deficient of 2 carboxyl terminal residues of parasin I]
1 µg/mL: MIC [2] | MIC [7] | MIC [9] | MIC [10]
0.5 µg/mL: MIC [1] | MIC [3] | MIC [6]
2 µg/mL: MIC [4] | MIC [5] | MIC [8]

K G R G K Q G G K V R A K A K (KGRGKQGGKVRAKAK) [Seq. No. 3, synthetic derivative deficient of 4 carboxyl terminal residues of parasin I]
2 µg/mL: MIC [2] | MIC [4] | MIC [5] | MIC [7] | MIC [9]
1 µg/mL: MIC [1] | MIC [3] | MIC [6]
4 µg/mL: MIC [8] | MIC [10]

Buforin I [reference compound]
8 µg/mL: MIC [3] | MIC [6] | MIC [8]
4 µg/mL: MIC [1] | MIC [2] | MIC [4] | MIC [5] | MIC [7] | MIC [9] | MIC [10]

CC(C)[C@H](NC(=O)[C@H](CCCCN)NC(=O)CNC(=O)CNC(=O)[C@H](CCC(N)=O)NC(=O)[C@H](CCCCN)NC(=O)CNC(=O)[C@H](CCCNC(=N)N)NC(=O)CNC(=O)[C@@H](N)CCCCN)C(=O)N[C@@H](CCCNC(=N)N)C(=O)N[C@@H](C)C(=O)N[C@@H](CCCCN)C(=O)N[C@@H](C)C(=O)N[C@@H](CCCCN)C(=O)N[C@H](C(=O)N[C@@H](CCCNC(=N)N)C(=O)N[C@@H](CO)C(=O)N[C@@H](CO)C(=O)O)[C@@H](C)O [Parasin I, Lys-Gly-Arg-Gly-Lys-Gln-Gly-Gly-Lys-Val-Arg-Ala-Lys-Ala-Lys-Thr-Arg-Ser-Ser] (H-KGRGKQGGKVRAKAKTRSS-OH)
0.2%: hemolysis [11]

K G R G K Q G G K V R A K A K T R S S (KGRGKQGGKVRAKAKTRSS) [Seq. No. 1]
2 µg/mL: MIC [5]
0.5 µg/mL: MIC [1] | MIC [3] | MIC [6]
4 µg/mL: MIC [8]
1 µg/mL: MIC [2] | MIC [4] | MIC [7] | MIC [9] | MIC [10]
